Where two headings read alike, the source gives them in different places.
Key:
[1] = molecular target: full-length P. pyralis luciferase (Photinus pyralis, UniProt P08659, K549A/L550V/N119G/N50D/S548I); assay type: cell-based
[2] = molecular target: T1, FGF14:Nav1.6 C-tail complex (Homo sapiens, UniProt Q92915+Q9UQD0); assay: Split-luciferase complementation assay (LCA) in Clone V double stable HEK293 cells; assay type: cell-based; details: for Split Luciferase Assay % Lum Set 1 / Split Luciferase Assay Z-score Set 1: biological replicate Set 1; for Split Luciferase Assay % Lum Set 1 / Split Luciferase Assay %Lum Set 2: normalized to on-plate 0.3% DMSO controls (n=16 per plate); for Split Luciferase Assay %Lum Set 2 / Split Luciferase Assay Z-score Set 2: biological replicate Set 2; for Split Luciferase Assay Z-score Set 1 / Split Luciferase Assay Z-score Set 2: normalized to on-plate 0.3% DMSO controls; for Split Luciferase Assay %Lum Avg: average of Set 1 and Set 2, normalized to 0.3% DMSO controls; for Z-score (LCA primary screening): 30 µM, average of primary screening (n = 2), vs on-plate 0.3% DMSO
T1 construct: polymerase chain reaction (PCR) amplification of the FGF14 open reading frame (nt 1–855); C-terminal fragment of Nav1.6 (amino acids 1763–1976) fused with CD4ΔC-tail (amino acids 1–395); expressed in transfected cells

[3] = CC_NCI screening, full-length luciferase counter-screen luminescence, normalized to on-plate 0.3% DMSO controls
[4] = CC_NCI screening, full-length luciferase counter-screen, normalized to on-plate 0.3% DMSO controls
[5] = CC_NCI screening, LCA luminescence
[6] = CC_NCI screening, normalized to on-plate 0.3% DMSO controls

Chain of full-length P. pyralis luciferase (P08659 whole entry N50D/N119G/S548I/K549A/L550V, looked up): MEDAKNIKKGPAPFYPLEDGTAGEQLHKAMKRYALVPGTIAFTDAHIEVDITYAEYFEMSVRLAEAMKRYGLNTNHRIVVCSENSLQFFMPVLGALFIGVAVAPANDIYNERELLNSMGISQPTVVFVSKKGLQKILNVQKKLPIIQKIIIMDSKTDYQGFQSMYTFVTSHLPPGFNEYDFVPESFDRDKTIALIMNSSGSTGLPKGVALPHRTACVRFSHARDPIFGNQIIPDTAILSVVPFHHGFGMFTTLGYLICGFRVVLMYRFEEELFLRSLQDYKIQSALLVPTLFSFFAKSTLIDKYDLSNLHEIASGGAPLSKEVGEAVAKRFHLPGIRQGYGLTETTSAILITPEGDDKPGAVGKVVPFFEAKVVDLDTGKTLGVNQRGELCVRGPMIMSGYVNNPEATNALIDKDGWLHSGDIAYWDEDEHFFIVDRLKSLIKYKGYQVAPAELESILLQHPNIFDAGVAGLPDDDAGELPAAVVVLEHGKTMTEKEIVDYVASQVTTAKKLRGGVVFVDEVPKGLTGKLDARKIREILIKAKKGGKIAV
T1 sequence (Q92915 1-252 isoform Q92915-2): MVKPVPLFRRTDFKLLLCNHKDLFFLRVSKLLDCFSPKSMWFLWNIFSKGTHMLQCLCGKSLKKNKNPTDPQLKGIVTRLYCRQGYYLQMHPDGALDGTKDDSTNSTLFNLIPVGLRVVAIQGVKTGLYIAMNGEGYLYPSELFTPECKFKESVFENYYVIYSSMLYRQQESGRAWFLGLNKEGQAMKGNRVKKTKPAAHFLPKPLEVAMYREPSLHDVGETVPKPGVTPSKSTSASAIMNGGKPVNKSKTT
T1 sequence (Q9UQD0 1763-1976 limits assumed): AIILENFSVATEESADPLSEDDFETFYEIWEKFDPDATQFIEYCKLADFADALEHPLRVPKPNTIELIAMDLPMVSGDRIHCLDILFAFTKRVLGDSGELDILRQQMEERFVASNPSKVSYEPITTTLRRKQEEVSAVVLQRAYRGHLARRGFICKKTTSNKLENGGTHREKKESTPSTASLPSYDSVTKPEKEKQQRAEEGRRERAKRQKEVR

SMILES | Toxicity Assay % Fluor (Clone V cells; human, 16 h, 30 µM) [%] | Toxicity Assay Z-score (Clone V cells; human, 16 h, 30 µM) | Luciferase Assay % Lum [1, 3] [%] | Luciferase Assay Z-score [1, 4] | Split Luciferase Assay % Lum Set 1 [2, 5] [%] | Split Luciferase Assay %Lum Set 2 [2, 5] [%] | Split Luciferase Assay Z-score Set 1 ([2]; CC_NCI screening, LCA) | Split Luciferase Assay Z-score Set 2 ([2]; CC_NCI screening, LCA) | Split Luciferase Assay %Lum Avg ([2]; CC_NCI screening) [%] | other results
COc1cc([C@@H]2c3cc4c(cc3[C@@H](O[C@@H]3O[C@@H]5CO[C@@H](C)O[C@H]5[C@H](O)[C@H]3O)[C@H]3COC(=O)[C@H]23)OCO4)cc(OC)c1O [Etoposide] | 88.49 | -1.61 | 103.75 | 0.48 | 77.51 | 72.82 | -1.82 | -2.21 | 75.17 | –
O=c1[nH]c(=O)n([C@H]2C[C@H](O)[C@@H](CO)O2)cc1F [Floxuridine, reference compound] | 90.13 | -1.38 | 100.29 | 0.04 | 154.69 | – | 4.42 | 3.04 | 146.01 | Z-score (LCA primary screening) ([2]; 384-well): 3.73; EMax (% Luminescence) ([2]; agonists, Clone V cells, 384-well, normalized to DMSO): 146.01 % Luminescence; EC50 ([2]; estimated, 8-point dose response 0.25-30 µM, n = 4 per concentration, library compounds, read-out: EC50): 2460 nM
Nc1nc(F)nc2c1ncn2[C@@H]1O[C@H](COP(=O)(O)O)[C@@H](O)[C@@H]1O [Fludarabine phosphate] | 95.37 | -0.65 | 119.94 | 2.55 | 112.30 | 119.64 | 0.99 | 1.60 | 115.97 | –
COC1=C2C[C@@H](C)C[C@H](OC)[C@H](O)[C@@H](C)/C=C(\C)[C@H](OC(N)=O)[C@@H](OC)/C=C\C=C(/C)C(=O)NC(=CC1=O)C2=O [GELDENAMYCIN] | – | – | 102.35 | 0.30 | 70.99 | 86.35 | -2.34 | -1.11 | 78.67 | Toxicity Assay % Fluor (Clone V cells): 94.70%; Toxicity Assay Z-score (Clone V cells): -0.74
CCc1cc(Nc2nccc(-c3c(-c4ccc(OC)c(C(=O)Nc5c(F)cccc5F)c4)nc4ccccn34)n2)c(OC)cc1N1CCC(N2CCN(S(C)(=O)=O)CC2)CC1 [GSK1904529A] | – | – | 86.97 | -1.67 | 116.65 | 92.59 | 1.35 | -0.60 | 104.62 | Toxicity Assay % Fluor (Clone V cells): 100.76%; Toxicity Assay Z-score (Clone V cells): 0.11
CCn1c(-c2nonc2N)nc2cnc(Oc3cccc(NC(=O)c4ccc(OCCN5CCOCC5)cc4)c3)cc21 [GSK 269962A] | 101.41 | 0.20 | 79.80 | -2.59 | 26.42 | 31.21 | -5.95 | -5.60 | 28.81 | –
Cn1cc(/C=C2\C(=O)Nc3cccnc32)c2ccccc21 [GW 441756] | – | – | – | – | – | – | – | – | – | Toxicity Assay % Fluor (CTB cell viability fluorescence) (Clone V cells): 107.67%; Toxicity Assay Z-score (CTB cell viability) (Clone V cells): 1.07; Luciferase Assay % Lum (full-length luciferase counter-screen) [1, 6]: 109.93%; Luciferase Assay Z-score (full-length luciferase counter-screen) [1, 6]: 1.27; Split Luciferase Assay Z-score Set 1 ([2]; CC_NCI screening): -0.50; Split Luciferase Assay % Lum Set 1 ([2]; CC_NCI screening): 93.82%; Split Luciferase Assay Z-score Set 2 ([2]; CC_NCI screening): -2.30; Split Luciferase Assay %Lum Set 2 ([2]; CC_NCI screening): 71.78%; Split Luciferase Assay %Lum Avg [2]: 82.80%
COc1cc2ncn(-c3cc(OCc4ccccc4C(F)(F)F)c(C(N)=O)s3)c2cc1OC [GW 843682X] | 106.44 | 0.90 | 102.89 | 0.37 | 163.39 | 170.61 | 5.12 | 5.75 | 167.00 | –
COc1cc2ncnc(Nc3ccc(F)c(Cl)c3)c2cc1OCCCN1CCOCC1 [Gefitinib] | 87.95 | -1.68 | – | – | 97.08 | 102.99 | -0.24 | 0.24 | 100.03 | Luciferase Assay % Lum [1]: 85.80%
O=S(=O)(NCCNC/C=C/c1ccc(Br)cc1)c1cccc2cnccc12 [H-89, reference compound] | – | – | 80.98 | -2.44 | 14.46 | 17.69 | -6.91 | -6.70 | 16.07 | Toxicity Assay % Fluor (Clone V cells): 91.80%; Toxicity Assay Z-score (Clone V cells): -1.15; Z-score (LCA primary screening) ([2]; 384-well): −6.81; dose-response behavior of repurchased compounds ([2]; 10-point dose response 0.25-50 µM, Clone V cells): purely inhibitory effects; IMin (% Luminescence) ([2]; antagonists, Clone V cells, 384-well, normalized to DMSO): 16.07 % Luminescence; action toward the FGF14:Nav1.6 C-tail interaction ([2]; dose-dependency validation using fresh compound samples): acted as antagonists; IC50 ([2]; estimated, 8-point dose response 0.25-30 µM, n = 4 per concentration, library compounds, read-out: IC50): 12.2 µM; IC50 ([2]; repurchased compounds, 10-point dose response 0.25-50 µM, n = 8 per concentration, Clone V cells, 384-well, read-out: in-cell IC50): 1.9 µM
CCOC(=O)C1=C(N)Oc2ccc(Br)cc2C1C(C#N)C(=O)OCC (stereo not drawn) [HA14-1] | – | – | 99.78 | -0.03 | 80.77 | 97.79 | -1.55 | -0.18 | 89.28 | Toxicity Assay % Fluor (Clone V cells): 102.67%; Toxicity Assay Z-score (Clone V cells): 0.37
NC(=O)NO [Hydroxyurea] | – | – | – | – | – | – | – | – | – | Toxicity Assay % Fluor (CTB cell viability fluorescence) (Clone V cells): 115.47%; Toxicity Assay Z-score (CTB cell viability) (Clone V cells): 2.16; Luciferase Assay % Lum (full-length luciferase counter-screen) [1, 6]: 102.60%; Luciferase Assay Z-score (full-length luciferase counter-screen) [1, 6]: 0.33; Split Luciferase Assay Z-score Set 1 ([2]; CC_NCI screening): -0.85; Split Luciferase Assay % Lum Set 1 ([2]; CC_NCI screening): 89.47%; Split Luciferase Assay Z-score Set 2 ([2]; CC_NCI screening): 1.01; Split Luciferase Assay %Lum Set 2 ([2]; CC_NCI screening): 112.35%; Split Luciferase Assay %Lum Avg [2]: 100.91%
Cn1cc(CNCC2CCN(c3ncc(C(=O)NO)cn3)CC2)c2ccccc21 [JNJ-26481585] | – | – | 97.58 | -0.31 | 112.30 | 109.23 | 0.99 | 0.75 | 110.77 | Toxicity Assay % Fluor (Clone V cells): 96.89%; Toxicity Assay Z-score (Clone V cells): -0.43
O=c1[nH]nc(Sc2ncc([N+](=O)[O-])s2)n1-c1ccc2c(c1)OCCO2 [JNK INHIBITOR X] | – | – | – | – | – | – | – | – | – | Toxicity Assay % Fluor (CTB cell viability fluorescence) (Clone V cells): 82.79%; Toxicity Assay Z-score (CTB cell viability) (Clone V cells): -2.41; Luciferase Assay % Lum (full-length luciferase counter-screen) [1, 6]: 4.80%; Luciferase Assay Z-score (full-length luciferase counter-screen) [1, 6]: -12.19; Split Luciferase Assay Z-score Set 1 ([2]; CC_NCI screening): -7.97; Split Luciferase Assay % Lum Set 1 ([2]; CC_NCI screening): 1.41%; Split Luciferase Assay Z-score Set 2 ([2]; CC_NCI screening): -7.88; Split Luciferase Assay %Lum Set 2 ([2]; CC_NCI screening): 3.12%; Split Luciferase Assay %Lum Avg [2]: 2.27%
O=c1cc(-c2cccc3c2Sc2ccccc2S3)oc(N2CCOCC2)c1 [KU-55933] | 89.20 | -1.51 | 33.90 | -8.46 | 69.90 | 81.14 | -2.43 | -1.53 | 75.52 | –
CS(=O)(=O)CCNCc1ccc(-c2ccc3ncnc(Nc4ccc(OCc5cccc(F)c5)c(Cl)c4)c3c2)o1 [Lapatinib] | – | – | – | – | – | – | – | – | – | Toxicity Assay % Fluor (CTB cell viability fluorescence) (Clone V cells): 114.10%; Toxicity Assay Z-score (CTB cell viability) (Clone V cells): 1.97; Luciferase Assay % Lum (full-length luciferase counter-screen) [1]: 75.39%; Luciferase Assay Z-score (full-length luciferase counter-screen) [1]: -3.15; Split Luciferase Assay Z-score Set 1 ([2]; CC_NCI screening): 1.35; Split Luciferase Assay Z-score Set 2 ([2]; CC_NCI screening): -1.87; Split Luciferase Assay %Lum Set 2 ([2]; CC_NCI screening): 76.98%; Split Luciferase Assay %Lum Avg [2]: 96.81%
CN(C)C(=N)N=C(N)N [METFORMIN] | 91.06 | -1.25 | – | – | 117.73 | 114.43 | 1.43 | 1.17 | 116.08 | Luciferase Assay % Lum [1]: 96.22%; Luciferase Assay Z-score [1]: -0.48

From article PMC6858373 (Scientific Reports, 2019)
